Patent publication US8993602B2, “Benzoic acid salt of otamixaban” (Sanofi, priority 2011, dated 2015)
Read-outs that look alike come from different tables or passages of the source.

Experiments:
[1] = for hygroscopicity (absorption or adsorption of water molecules from the surrounding environment): result in words
Procedure: Moreover, crystalline benzoic acid salt of Formula I may also be characterized by its dynamic vapor sorption (DVS) water vapor sorption and desorption isotherms measured at 25° C. Before starting the sorption cycle the crystalline salt of Formula I sample is treated with dry nitrogen gas.
Moisture sorption/desorption isotherms were recorded on a DVS-1000 from Surface Measurement Systems. […] Typical total measurement times for both cycles were about 20 to 30 hours.

free factor Xa = free factor Xa (Homo sapiens, UniProt P00742); conditions: cited from earlier work
[2] = target: factor Xa assembled in the prothrombinase complex (Factor Xa, Factor Va, calcium and phospholipid) (Homo sapiens, UniProt P00742); conditions: cited from earlier work
models of thrombosis = conditions: rodent, canine and porcine models; cited from earlier work
acute coronary syndrome = conditions: humans, recent clinical findings; cited from earlier work
[3] = system: prothrombin fragments 1+2; conditions: highest dose regimen, versus unfractionated heparin; cited from earlier work
factor Xa = target: T1, factor Xa (Homo sapiens, UniProt P00742); conditions: patients with stable coronary artery disease on usual comedication, some with mild renal impairment; cited from earlier work
T1 construct: from tissue; host or cells: blood of patients (in vivo; result quoted from Hinder et al. 2006)
T1 sequence (P00742 235-488 limits assumed): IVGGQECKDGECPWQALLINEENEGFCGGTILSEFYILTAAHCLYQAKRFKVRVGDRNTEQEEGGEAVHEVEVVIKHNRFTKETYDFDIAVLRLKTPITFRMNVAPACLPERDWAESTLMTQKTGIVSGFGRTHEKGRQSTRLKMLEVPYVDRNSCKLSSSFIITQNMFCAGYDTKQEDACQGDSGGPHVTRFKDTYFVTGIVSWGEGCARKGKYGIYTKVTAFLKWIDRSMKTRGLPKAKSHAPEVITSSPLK
T1 sequence (P00742 41-179 partner limits assumed): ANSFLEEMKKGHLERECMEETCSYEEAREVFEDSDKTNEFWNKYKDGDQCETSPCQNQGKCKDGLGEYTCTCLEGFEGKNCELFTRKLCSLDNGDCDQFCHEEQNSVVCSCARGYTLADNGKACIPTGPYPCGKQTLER

free factor Xa, sequence (P00742 235-488 limits assumed): as the sequence (P00742 235-488 limits assumed) above
free factor Xa, sequence (P00742 41-179 partner limits assumed): as the sequence (P00742 41-179 partner limits assumed) above
factor Xa assembled in the prothrombinase complex (Factor Xa, Factor Va, calcium and phospholipid), sequence (P00742 235-488 limits assumed): as the sequence (P00742 235-488 limits assumed) above
factor Xa assembled in the prothrombinase complex (Factor Xa, Factor Va, calcium and phospholipid), sequence (P00742 41-179 partner limits assumed): as the sequence (P00742 41-179 partner limits assumed) above
factor Xa assembled in the prothrombinase complex (Factor Xa, Factor Va, calcium and phospholipid), sequence (P12259 29-737 partner limits assumed): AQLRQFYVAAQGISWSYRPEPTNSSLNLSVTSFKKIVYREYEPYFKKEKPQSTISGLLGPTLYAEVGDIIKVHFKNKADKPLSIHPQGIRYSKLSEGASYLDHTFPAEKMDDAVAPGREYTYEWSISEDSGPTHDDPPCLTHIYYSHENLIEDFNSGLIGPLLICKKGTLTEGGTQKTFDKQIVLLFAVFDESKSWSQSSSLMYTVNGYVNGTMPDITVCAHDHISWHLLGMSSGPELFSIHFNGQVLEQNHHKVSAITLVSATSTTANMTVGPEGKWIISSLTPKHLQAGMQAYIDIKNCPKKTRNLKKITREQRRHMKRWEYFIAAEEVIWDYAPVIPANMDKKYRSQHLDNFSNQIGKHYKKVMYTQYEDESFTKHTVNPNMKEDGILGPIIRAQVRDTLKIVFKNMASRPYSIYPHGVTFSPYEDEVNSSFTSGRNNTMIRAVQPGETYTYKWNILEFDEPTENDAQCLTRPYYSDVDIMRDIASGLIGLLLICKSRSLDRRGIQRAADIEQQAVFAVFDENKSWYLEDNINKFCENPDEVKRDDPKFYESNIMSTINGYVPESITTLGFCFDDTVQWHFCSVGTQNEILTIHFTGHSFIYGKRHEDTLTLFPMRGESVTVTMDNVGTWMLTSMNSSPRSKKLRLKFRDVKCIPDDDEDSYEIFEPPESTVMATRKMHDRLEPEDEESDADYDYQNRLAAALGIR
factor Xa assembled in the prothrombinase complex (Factor Xa, Factor Va, calcium and phospholipid), sequence (P12259 1574-2224 partner limits assumed): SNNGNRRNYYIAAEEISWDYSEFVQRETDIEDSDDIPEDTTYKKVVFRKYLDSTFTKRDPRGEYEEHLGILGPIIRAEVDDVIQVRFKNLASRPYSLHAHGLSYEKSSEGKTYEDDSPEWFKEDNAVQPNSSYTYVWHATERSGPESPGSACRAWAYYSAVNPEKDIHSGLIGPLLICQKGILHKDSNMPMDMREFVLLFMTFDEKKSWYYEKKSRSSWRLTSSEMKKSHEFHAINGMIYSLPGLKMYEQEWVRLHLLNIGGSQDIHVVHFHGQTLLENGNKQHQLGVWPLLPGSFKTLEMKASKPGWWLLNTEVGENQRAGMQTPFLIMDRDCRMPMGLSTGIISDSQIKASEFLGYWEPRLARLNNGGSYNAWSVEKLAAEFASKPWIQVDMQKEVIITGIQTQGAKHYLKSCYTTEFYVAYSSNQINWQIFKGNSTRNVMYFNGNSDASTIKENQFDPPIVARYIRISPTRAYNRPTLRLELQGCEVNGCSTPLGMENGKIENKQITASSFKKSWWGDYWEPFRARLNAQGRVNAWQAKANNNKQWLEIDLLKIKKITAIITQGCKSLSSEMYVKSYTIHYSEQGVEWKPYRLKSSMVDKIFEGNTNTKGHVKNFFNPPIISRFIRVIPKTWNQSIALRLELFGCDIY

SMILES: CCC(C)O.COC(=O)[C@H](Cc1cccc(C(=N)N)c1)[C@@H](C)NC(=O)c1ccc(-c2cc[n+]([O-])cc2)cc1.COC(=O)[C@H](Cc1cccc(C(=N)N)c1)[C@@H](C)NC(=O)c1ccc(-c2cc[n+]([O-])cc2)cc1.Cl.Cl [Methyl(2R,3R)-2-{3-[amino(imino)methyl]benzyl}-3-{[4-(1-oxidopyridin-4-yl)benzoyl]amino}butanoate monohydrochloride-hemi-2-butanol-solvate]
- Change In Mass (%) Desorption ([1]; Cycle 1, Target RH 0.0%): 0.35%
- Change In Mass (%) Sorption ([1]; Cycle 1, Target RH 0.0%): 0.00%
- Change In Mass (%) Desorption ([1]; Cycle 1, Target RH 10.0%): 3.33%
- Change In Mass (%) Hysteresis ([1]; Cycle 1, Target RH 10.0%): 2.54%
- Change In Mass (%) Sorption ([1]; Cycle 1, Target RH 10.0%): 0.79%
- Change In Mass (%) Desorption ([1]; Cycle 1, Target RH 20.0%): 5.29%
- Change In Mass (%) Hysteresis ([1]; Cycle 1, Target RH 20.0%): 4.01%
- Change In Mass (%) Sorption ([1]; Cycle 1, Target RH 20.0%): 1.28%
- Change In Mass (%) Desorption ([1]; Cycle 1, Target RH 40.0%): 7.14%
- Change In Mass (%) Hysteresis ([1]; Cycle 1, Target RH 40.0%): 4.91%
- Change In Mass (%) Sorption ([1]; Cycle 1, Target RH 40.0%): 2.22%
- Change In Mass (%) Desorption ([1]; Cycle 1, Target RH 60.0%): 9.78%
- Change In Mass (%) Hysteresis ([1]; Cycle 1, Target RH 60.0%): 6.09%
- Change In Mass (%) Sorption ([1]; Cycle 1, Target RH 60.0%): 3.69%
- Change In Mass (%) Desorption ([1]; Cycle 1, Target RH 80.0%): 16.92%
- Change In Mass (%) Hysteresis ([1]; Cycle 1, Target RH 80.0%): −0.87%
- Change In Mass (%) Sorption ([1]; Cycle 1, Target RH 80.0%): 17.79%
- Change In Mass (%) Desorption ([1]; Cycle 1, Target RH 90.0%): 26.07%
- Change In Mass (%) Hysteresis ([1]; Cycle 1, Target RH 90.0%): −0.59%
- Change In Mass (%) Sorption ([1]; Cycle 1, Target RH 90.0%): 26.66%
- Change In Mass (%) Desorption ([1]; Cycle 1, Target RH 95.0%): 34.13%
- Change In Mass (%) Sorption ([1]; Cycle 1, Target RH 95.0%): 34.13%
- Change In Mass (%) Desorption ([1]; Cycle 2, Target RH 0.0%): 0.34%
- Change In Mass (%) Sorption ([1]; Cycle 2, Target RH 0.0%): 0.35%
- Change In Mass (%) Desorption ([1]; Cycle 2, Target RH 10.0%): 3.17%
- Change In Mass (%) Hysteresis ([1]; Cycle 2, Target RH 10.0%): 2.48%
- Change In Mass (%) Sorption ([1]; Cycle 2, Target RH 10.0%): 0.69%
- Change In Mass (%) Desorption ([1]; Cycle 2, Target RH 20.0%): 4.97%
- Change In Mass (%) Hysteresis ([1]; Cycle 2, Target RH 20.0%): 3.65%
- Change In Mass (%) Sorption ([1]; Cycle 2, Target RH 20.0%): 1.32%
- Change In Mass (%) Desorption ([1]; Cycle 2, Target RH 40.0%): 6.78%
- Change In Mass (%) Hysteresis ([1]; Cycle 2, Target RH 40.0%): 4.11%
- Change In Mass (%) Sorption ([1]; Cycle 2, Target RH 40.0%): 2.67%
- Change In Mass (%) Desorption ([1]; Cycle 2, Target RH 60.0%): 9.41%
- Change In Mass (%) Hysteresis ([1]; Cycle 2, Target RH 60.0%): 4.84%
- Change In Mass (%) Sorption ([1]; Cycle 2, Target RH 60.0%): 4.57%
- Change In Mass (%) Desorption ([1]; Cycle 2, Target RH 80.0%): 16.37%
- Change In Mass (%) Hysteresis ([1]; Cycle 2, Target RH 80.0%): 2.94%
- Change In Mass (%) Sorption ([1]; Cycle 2, Target RH 80.0%): 13.43%
- Change In Mass (%) Desorption ([1]; Cycle 2, Target RH 90.0%): 25.32%
- Change In Mass (%) Hysteresis ([1]; Cycle 2, Target RH 90.0%): 1.41%
- Change In Mass (%) Sorption ([1]; Cycle 2, Target RH 90.0%): 23.91%
- Change In Mass (%) Desorption ([1]; Cycle 2, Target RH 95.0%): 32.86%
- Change In Mass (%) Sorption ([1]; Cycle 2, Target RH 95.0%): 32.86%
- hygroscopicity (absorption or adsorption of water molecules from the surrounding environment) [1]: hygroscopic

SMILES: COC(=O)[C@H](Cc1cccc(C(=N)N)c1)[C@@H](C)NC(=O)c1ccc(-c2cc[n+]([O-])cc2)cc1 (mixture of isomers) [Otamixaban, Methyl(2R,3R)-2-{3-[amino(imino)methyl]benzyl}-3-{[4-(1-oxidopyridin-4-yl)benzoyl]amino}butanoate]
- inhibition of free factor Xa (free factor Xa): inhibited
- inhibition of factor Xa assembled in the prothrombinase complex [2]: inhibited
- efficacy in models of thrombosis (models of thrombosis): highly efficacious
- clinical efficacy (acute coronary syndrome): efficacious
- clinical safety and tolerability (acute coronary syndrome): safe and well tolerated
- reduction of prothrombin fragments 1+2 [3]: reduced prothrombin fragments 1+2 significantly more than unfractionated heparin
- factor Xa inhibition in patients (factor Xa): dose-dependent, rapid direct factor Xa inhibition

SMILES: COC(=O)[C@H](Cc1cccc(C(=N)N)c1)[C@@H](C)NC(=O)c1ccc(-c2cc[n+]([O-])cc2)cc1.O=C(O)c1ccccc1 [benzoic acid salt of methyl(2R,3R)-2-{3-[amino(imino)methyl]benzyl}-3-{[4-(1-oxidopyridin-4-yl)benzoyl]amino}butanoate]
- Change In Mass (%) Desorption ([1]; Cycle 1, Target RH 0.0%): −0.035%
- Change In Mass (%) Sorption ([1]; Cycle 1, Target RH 0.0%): 0.000%
- Change In Mass (%) Desorption ([1]; Cycle 1, Target RH 10.0%): 0.215%
- Change In Mass (%) Hysteresis ([1]; Cycle 1, Target RH 10.0%): 0.119%
- Change In Mass (%) Sorption ([1]; Cycle 1, Target RH 10.0%): 0.096%
- Change In Mass (%) Desorption ([1]; Cycle 1, Target RH 20.0%): 0.326%
- Change In Mass (%) Hysteresis ([1]; Cycle 1, Target RH 20.0%): 0.146%
- Change In Mass (%) Sorption ([1]; Cycle 1, Target RH 20.0%): 0.180%
- Change In Mass (%) Desorption ([1]; Cycle 1, Target RH 40.0%): 0.534%
- Change In Mass (%) Hysteresis ([1]; Cycle 1, Target RH 40.0%): 0.172%
- Change In Mass (%) Sorption ([1]; Cycle 1, Target RH 40.0%): 0.363%
- Change In Mass (%) Desorption ([1]; Cycle 1, Target RH 60.0%): 0.810%
- Change In Mass (%) Hysteresis ([1]; Cycle 1, Target RH 60.0%): 0.214%
- Change In Mass (%) Sorption ([1]; Cycle 1, Target RH 60.0%): 0.596%
- Change In Mass (%) Desorption ([1]; Cycle 1, Target RH 80.0%): 1.300%
- Change In Mass (%) Hysteresis ([1]; Cycle 1, Target RH 80.0%): 0.374%
- Change In Mass (%) Sorption ([1]; Cycle 1, Target RH 80.0%): 0.926%
- Change In Mass (%) Desorption ([1]; Cycle 1, Target RH 90.0%): 1.697%
- Change In Mass (%) Hysteresis ([1]; Cycle 1, Target RH 90.0%): 0.290%
- Change In Mass (%) Sorption ([1]; Cycle 1, Target RH 90.0%): 1.408%
- Change In Mass (%) Desorption ([1]; Cycle 1, Target RH 95.0%): 2.031%
- Change In Mass (%) Sorption ([1]; Cycle 1, Target RH 95.0%): 2.031%
- Change In Mass (%) Desorption ([1]; Cycle 2, Target RH 0.0%): −0.056%
- Change In Mass (%) Sorption ([1]; Cycle 2, Target RH 0.0%): −0.035%
- Change In Mass (%) Desorption ([1]; Cycle 2, Target RH 10.0%): 0.198%
- Change In Mass (%) Hysteresis ([1]; Cycle 2, Target RH 10.0%): 0.089%
- Change In Mass (%) Sorption ([1]; Cycle 2, Target RH 10.0%): 0.109%
- Change In Mass (%) Desorption ([1]; Cycle 2, Target RH 20.0%): 0.310%
- Change In Mass (%) Hysteresis ([1]; Cycle 2, Target RH 20.0%): 0.084%
- Change In Mass (%) Sorption ([1]; Cycle 2, Target RH 20.0%): 0.226%
- Change In Mass (%) Desorption ([1]; Cycle 2, Target RH 40.0%): 0.523%
- Change In Mass (%) Hysteresis ([1]; Cycle 2, Target RH 40.0%): 0.062%
- Change In Mass (%) Sorption ([1]; Cycle 2, Target RH 40.0%): 0.461%
- Change In Mass (%) Desorption ([1]; Cycle 2, Target RH 60.0%): 0.800%
- Change In Mass (%) Hysteresis ([1]; Cycle 2, Target RH 60.0%): 0.058%
- Change In Mass (%) Sorption ([1]; Cycle 2, Target RH 60.0%): 0.742%
- Change In Mass (%) Desorption ([1]; Cycle 2, Target RH 80.0%): 1.299%
- Change In Mass (%) Hysteresis ([1]; Cycle 2, Target RH 80.0%): 0.058%
- Change In Mass (%) Sorption ([1]; Cycle 2, Target RH 80.0%): 1.241%
- Change In Mass (%) Desorption ([1]; Cycle 2, Target RH 90.0%): 1.687%
- Change In Mass (%) Hysteresis ([1]; Cycle 2, Target RH 90.0%): 0.071%
- Change In Mass (%) Sorption ([1]; Cycle 2, Target RH 90.0%): 1.616%
- Change In Mass (%) Desorption ([1]; Cycle 2, Target RH 95.0%): 1.999%
- Change In Mass (%) Sorption ([1]; Cycle 2, Target RH 95.0%): 1.999%
- water uptake (DVS) ([1]; at 80% RH): 1.1%
- water uptake (DVS) ([1]; at 95% RH): 2.0%
- hygroscopicity (absorption or adsorption of water molecules from the surrounding environment) [1]: favorable reduced absorption or adsorption of water molecules
